Experimental findings from ChEMBL document CHEMBL1152363 (Bioorg Med Chem Lett, 2009) are described below.

pIC50: −log10 of the molar value.

Chain of Dipeptidyl peptidase 4 (P27487 whole entry): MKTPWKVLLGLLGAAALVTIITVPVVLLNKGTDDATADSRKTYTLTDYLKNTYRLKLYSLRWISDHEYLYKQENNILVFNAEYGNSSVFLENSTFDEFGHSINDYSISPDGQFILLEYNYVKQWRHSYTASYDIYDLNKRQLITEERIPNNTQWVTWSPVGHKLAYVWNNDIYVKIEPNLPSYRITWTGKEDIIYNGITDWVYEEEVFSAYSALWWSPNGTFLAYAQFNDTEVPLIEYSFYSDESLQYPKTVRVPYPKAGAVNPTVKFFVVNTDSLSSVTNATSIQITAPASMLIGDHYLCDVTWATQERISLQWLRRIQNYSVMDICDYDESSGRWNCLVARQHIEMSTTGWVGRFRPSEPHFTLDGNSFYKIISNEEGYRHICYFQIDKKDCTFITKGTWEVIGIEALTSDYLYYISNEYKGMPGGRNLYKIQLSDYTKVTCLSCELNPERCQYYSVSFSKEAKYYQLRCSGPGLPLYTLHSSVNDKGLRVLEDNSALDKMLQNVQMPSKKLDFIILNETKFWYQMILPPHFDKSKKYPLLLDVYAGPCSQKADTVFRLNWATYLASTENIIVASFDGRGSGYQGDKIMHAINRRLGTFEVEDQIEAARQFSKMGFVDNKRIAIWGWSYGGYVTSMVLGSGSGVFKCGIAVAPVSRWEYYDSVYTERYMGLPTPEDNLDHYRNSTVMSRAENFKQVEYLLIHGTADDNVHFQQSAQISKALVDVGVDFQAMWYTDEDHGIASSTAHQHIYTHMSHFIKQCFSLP

Test system in one series: not listed separately
Briefly: Metabolic stability in rat liver microsomes assessed as turnover after 60 mins. The series is classed as ADME, Microsome. Conditions: read-out: Stability.
`N[C@@H](CC(=O)N1CCC[C@H]1CNC(=O)c1ccccc1)Cc1ccccc1F`: the metabolised at 1 h was 76%.

The next series concerns the target Dipeptidyl peptidase 4 (Homo sapiens, UniProt P27487). Briefly: Inhibition of DPP4 by continuous fluorimetric assay.
Details: not given
A word on the pIC50: it is −log10 of the IC50, conventionally taken in molar units. Low readings indicate a large IC50, high ones a small IC50. With `N[C@@H](CC(=O)N1CCC[C@H]1CNS(=O)(=O)c1ccc(Cl)cc1)Cc1ccccc1F`, the negative logarithm of the IC50 (pIC50) was 7.70.

In turn, `N[C@@H](CC(=O)N1CCC[C@H]1CNC(=O)c1ccccc1F)Cc1ccccc1F` showed a pIC50 of 7.31.

`N[C@@H](CC(=O)N1CCC[C@H]1CNC(=O)c1cccc(F)c1)Cc1ccccc1F` showed a negative logarithm of the IC50 (pIC50) of 7.04.

For the compound `N[C@@H](CC(=O)N1CCC[C@H]1CNC(=O)c1ccc(F)cc1)Cc1ccccc1F`, the negative-log IC50 (pIC50) is 7.04.

`CS(=O)(=O)c1ccc(C(=O)NC[C@@H]2CCCN2C(=O)C[C@H](N)Cc2ccccc2F)cc1`: the pIC50 is 7.11.

The compound `N[C@@H](CC(=O)N1CCC[C@H]1CNC(=O)c1ccccn1)Cc1ccccc1F` had a pIC50 of 7.33. This pIC50 lies 0.22 log units higher than the previous one.

Compound `N[C@@H](CC(=O)N1CCC[C@H]1CNS(=O)(=O)c1cc(Cl)ccc1Cl)Cc1ccccc1F` showed a negative-log IC50 (pIC50) of 7.62.

The compound `N[C@@H](CC(=O)N1CCC[C@H]1CNC(=O)c1ccccc1)Cc1cccc(Cl)c1` showed a negative logarithm of the IC50 (pIC50) of 7.57.

`N[C@@H](CC(=O)N1CCC[C@H]1CNS(=O)(=O)c1cccc(F)c1)Cc1ccccc1F` showed a negative logarithm of the IC50 (pIC50) of 7.03.

With `N[C@@H](CC(=O)N1CCC[C@H]1CNC(=O)c1ccncc1)Cc1ccccc1F`, the negative logarithm of the IC50 (pIC50) is 7.18.

`CS(=O)(=O)c1ccccc1C(=O)NC[C@@H]1CCCN1C(=O)C[C@H](N)Cc1ccccc1F` showed a pIC50 of 7.57.

`N[C@@H](CC(=O)N1CCC[C@H]1CNC(=O)c1cccnc1)Cc1ccccc1F` had a negative-log IC50 (pIC50) of 7.06.

Consider `N[C@@H](CC(=O)N1CCC[C@H]1CNS(=O)(=O)c1ccc(F)cc1)Cc1ccccc1F`, for which the pIC50 is 7.57.
